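Each compound was tested at five concentrations against cells in 96-well plates for 48 hours. TGI marks complete inhibition of growth.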
Legend:
Test in all cases: NCI tumour cell line growth inhibition, 48 h
MOLT-4 leukemia = tested on: MOLT-4 leukemia
MDA-MB-435 = tested on: MDA-MB-435
NCI-H226 lung = tested on: NCI-H226 lung
IGROV1 ovarian = tested on: IGROV1 ovarian
CCRF-CEM leukemia = tested on: CCRF-CEM leukemia
MDA-MB-231 breast = tested on: MDA-MB-231 breast
UACC-62 melanoma = tested on: UACC-62 melanoma
HCT-116 colon = tested on: HCT-116 colon
UO-31 renal = tested on: UO-31 renal
HCC-2998 colon = tested on: HCC-2998 colon
HCT-15 colon = tested on: HCT-15 colon
RXF 393 renal = tested on: RXF 393 renal
HL-60(TB) leukemia = tested on: HL-60(TB) leukemia
HOP-62 NSCLC = tested on: HOP-62 NSCLC
NCI-H23 lung = tested on: NCI-H23 lung
SK-MEL-2 melanoma = tested on: SK-MEL-2 melanoma
MALME-3M melanoma = tested on: MALME-3M melanoma
A549 NSCLC = tested on: A549 NSCLC
MCF7 breast = tested on: MCF7 breast
SR leukemia = tested on: SR leukemia

Row | SMILES | TGI (MOLT-4 leukemia) [µM] | TGI (MDA-MB-435) [µM] | TGI (NCI-H226 lung) [µM] | TGI (IGROV1 ovarian) [µM] | TGI (CCRF-CEM leukemia) [µM] | TGI (MDA-MB-231 breast) [µM] | TGI (UACC-62 melanoma) [µM] | TGI (HCT-116 colon) [µM] | TGI (UO-31 renal) [µM] | TGI (HCC-2998 colon) [µM] | TGI (HCT-15 colon) [µM] | TGI (RXF 393 renal) [µM] | TGI (HL-60(TB) leukemia) [µM] | TGI (HOP-62 NSCLC) [µM] | TGI (NCI-H23 lung) [µM] | TGI (SK-MEL-2 melanoma) [µM] | TGI (MALME-3M melanoma) [µM] | TGI (A549 NSCLC) [µM] | TGI (MCF7 breast) [µM] | TGI (SR leukemia) [µM]
1 | CC1=CCS(=O)(=O)C1C(O)C1=C(C)CCCC1(C)C (centres undefined) | > 100 | > 100 | > 100 | > 100 | > 100 | > 100 | > 100 | > 100 | > 100 | > 100 | > 100 | > 100 | > 100 | > 100 | > 100 | > 100 | > 100 | > 100 | > 100 | 
2 | CCOC(=O)C(O)(NC(=O)Nc1ccc(F)cc1)C(F)(F)F (centres undefined) | > 100 | > 100 |  | > 100 | > 100 |  |  | > 100 | > 100 | > 100 | > 100 | > 100 | > 100 |  | > 100 | > 100 |  | > 100 |  | > 100
3 | COC(=O)c1cc(-c2c[nH]cc2C(=O)OCc2ccccc2)cn1S(=O)(=O)c1ccc(C)cc1 | > 100 |  |  | > 100 | > 100 | > 100 | > 100 | > 100 | > 100 | > 100 | > 100 | > 100 |  | > 100 | > 100 | > 100 | > 100 | > 100 | > 100 | > 100
4 | O=C(Nc1ccc([N+](=O)[O-])cc1)C(=O)C(C(=O)c1ccccc1F)C1OC(=O)c2ccccc21 (centres undefined) | > 100 |  | 59.8 | > 100 | 58.4 |  | > 100 | > 100 | > 100 | 41.4 | > 100 | 79.6 | 66.1 | > 100 | > 100 | 71.6 |  | > 100 |  | 64.7
5 | CC(=O)O[C@]12CCC[C@H]1C1(O)C(O)CCC[C@H]12 (some centres undefined) | > 100 |  | > 100 |  | > 100 |  | > 100 | > 100 | > 100 |  | > 100 | > 100 | > 100 | > 100 | > 100 | > 100 | > 100 | > 100 |  | > 100
6 | Cn1c(=O)nc2n(-c3ccc(Cl)cc3Cl)c3ccccc3nc-2c1=O | 35.7 |  |  | 27 |  |  | 6.16 | 5.19 | 26 | 14.5 | 15.4 | 15.4 | 27.8 | 23.9 | 22 | 17.4 | 3.26 | 13.3 |  | > 100
7 | O=C1C(=O)N(C2CCCCC2)C(=S)N1C1CCCCC1 | > 100 | > 100 | > 100 | > 100 | > 100 | > 100 | > 100 | > 100 | > 100 | > 100 | > 100 | > 100 | > 100 | > 100 | > 100 | > 100 | > 100 | > 100 |  | > 100
8 | CCOC(CCCN1CCC2(CC1)C(=O)N(C)CN2c1ccccc1)(OCC)c1ccc(F)cc1 | 22.6 |  | 33.6 | 31.2 | 18.7 | 29.3 | 34.3 | 14.2 | 19.8 | 21.3 | 22.7 | 34.6 | 30.6 | 14.7 | 39.5 |  | 31.2 | 23.9 | 13.8 | 
9 | [O-]c1on[n+]2c1c(Nc1ccc(Cl)cc1)nc1ccccc12 | > 100 |  |  | > 100 | > 100 |  | > 100 | > 100 | > 100 | > 100 |  | > 100 | > 100 |  | > 100 |  |  | > 100 |  | > 100
10 | O=Cc1cc2c(o1)C(=O)c1ccccc1C2=O | 4.56 |  | 2.27 | 4.46 | 6.4 | > 30.2 | 3.29 | 1.18 | 4.6 | 3.43 |  | 2.99 | 1.15 | 2.6 | 0.465 | 4.2 | 0.37 | 3.02 | 0.581 | 3.68
11 | CC(C)(C)OC(=O)CN1CCNCCN(CC(=O)OC(C)(C)C)CC1 | > 100 |  | > 100 | > 100 | > 100 | > 100 | > 100 | > 100 | > 100 | > 100 | > 100 |  | 86.1 | > 100 |  | > 100 | > 100 | > 100 | > 100 | > 100
12 | OC(c1ccccc1)(c1ccccc1)c1cccnc1 |  |  | > 100 | > 100 | > 100 |  | > 100 | > 100 | > 100 | > 100 | > 100 |  |  | > 100 | > 100 | > 100 | > 100 | > 100 |  | 
13 | O=C(O)C/C(=C\c1ccccc1)C(=O)O | > 100 | > 100 | > 100 | > 100 | > 100 | > 100 | > 100 | > 100 | > 100 | > 100 | > 100 | > 100 | > 100 | > 100 | > 100 | > 100 | > 100 | > 100 | > 100 | 
14 | CC(CCc1ccc2c(c1)c(=N)c1ccc(N)cc1n2O)CC(C)(C)C (centres undefined) |  |  |  | 2.95 | 2.69 |  | 2.79 | 4.03 | 34 |  | 17.9 | 4.43 | 3.42 | 3.31 |  | 3.31 | 3.37 | 3.22 |  | 4.03

Reference: PubChem BioAssay (NCI)
